Assay results taken from patent US20190062749A1, “SIRNA, PHARMACEUTICAL COMPOSITION AND CONJUGATE WHICH CONTAIN SIRNA, AND USES THEREOF” (priority 2015, published 2019).
d = 2'-deoxy (DNA); m = 2'-O-methyl; r = 2'-OH (RNA); f = 2'-fluoro

How the values were obtained:
HBsAg [1] = settings: 0.1 mg/kg gastric gavage daily for 7 days
Procedure: The drug dosages for all animals were calculated based on the body weight and the administration volume was 10 ml/kg. The PBS group and each of the RBP131/X2M2 groups were administered with a single dose via tail vein, and the entecavir group was administered by gastric gavage daily for 7 consecutive days, i.e., once a day from day 0 to day 6. Half of the animals was sacrificed in batches at day 7 and day 28, respectively. The expression levels of HBsAg in liver tissue were detected by the detection method as described above.

HBV gene = settings: prior application CN102140461B; cited from earlier work
[2] = prior application CN102140461B; cited from earlier work
[3] = prior application CN102140461B; cited from earlier work; remark: listed apart in the source
[4] = Stability of siRNAs in human plasma in vitro (gel, ratio of the longest fragments RL); type: in vitro ADME; settings: 50% human plasma
Procedure: The siRNAs (20 μM, 10 μl) obtained in Preparation Example 1 were incubated with 50% human plasma (HP) at 37° C. in vitro for a certain time and samples were taken therefrom. Specifically, 10 μl samples were taken at 0, 2, 4, 6, 8, 24 and 48 hours respectively and immediately snap frozen in liquid nitrogen, followed by cryopreservation at −80° C. for future use. 20 wt % non-denaturing polyacrylamide gel was formulated, and 10 μl 5-fold diluted above samples (dilution solution: 1×PBS buffer at pH 7.4) and 4 μl loading buffer (20 mM EDTA, 36 wt % glycerol, 0.06 wt % bromophenol blue) were mixed and then loaded into the gel to perform electrophoresis for about 60 minutes under 80 mA constant current. After electrophoresis finished, the gel was stained with 1× Sybr Gold dye (Invitrogen, Cat. 11494) for 15 minutes followed by imaging.
The ratio of the longest fragments remained after incubating the test siRNAs and control siRNAs with human plasma to the longest fragments of the siRNAs without the treatment of human plasma (i.e., the markers shown in FIG. 3) (also referred to as ratio of the longest fragments, RL) is calculated by reading the grayscale values quantitatively.

rat primary hepatocytes = assay: MTT cytotoxicity assay in rat primary hepatocytes; type: cell-based; settings: 500 nM concentration
HBV mRNA = assay: Inhibition of HBV mRNA expression in transfected HepG2.2.15 cells (fluorescent qPCR); type: cell-based; settings: 50 nM, 10 nM and 1 nM siRNA, 48 hours after transfection
Procedure: HepG2.2.15 cells were purchased from ATCC, cultured with DMEM complete medium (Gibco) containing 10% fetal bovine serum (FBS, Gibco), 2 mM L-glutamine (Gibco) and 380 μg/ml G418 in an incubator containing 5% CO2/95% air at 37° C.
When using the siRNAs against the X gene region of HBV or the non-specific siRNAs as negative controls synthesized in Preparation Example 1 (all of which were synthesized by Suzhou Ribo Life Science Co., Ltd.) to transfect cells, Lipofectamine™ 2000 (Invitrogen) was used as a transfection reagent. The specific procedures thereof may refer to the instruction provided by the manufacturer. […]
The final concentrations of the siRNAs were 50 nM, 10 nM and 1 nM, respectively. The expression levels of HBV mRNA in the above harvested cells were measured by real-time fluorescent qPCR 48 hours after transfection. Specifically, RNeasy Mini Kit (QIAGEN Co., Cat. 74106) was used to extract total RNAs according to the instructions thereof, and the extracted total RNAs were reverse transcribed into cDNAs, and then the inhibitory efficiency of the siRNAs on the expression of HBV mRNA in HepG2.2.15 cells was detected by fluorescent qPCR method. […]
In this fluorescent qPCR method, the inhibitory activity of siRNA was expressed as the remaining expression of HBV gene, and was calculated as follows: […]

HepG2.2.15 cells = assay: MTT cytotoxicity assay in HepG2.2.15 cells; type: cell-based; settings: 500 nM concentration
HBsAg [5] = settings: 25 ng/g subcutaneously twice a week (day 0, 4, 7, 11, 14), day 7 to 28
Procedure: The drug dosages for all animals were calculated based on the body weight and the administration volume was 10 ml/kg. […] The blood was taken from mouse orbital venous plexus before administration and at day 7, 14, 21, and 28 after administration, and serum HBsAg levels were measured for each time point.
The volume of the blood taken out from the orbit was about 0.5 ml each time, and the volume of the serum was no less than 200 μl after centrifugation. HBsAg CLIA kit (Autobio, CL0310) was used to detect the expression levels of HBsAg in serum. The remaining expression of HBsAg was calculated as follows:
The remaining expression of HBsAg=(the content of HBsAg in the test group/the content of HBsAg in the PBS control group)×100%, wherein the content of HBsAg was expressed in nanograms of HBsAg per gram of liver tissue proteins.

Compound: C=C1[C@H](CO)[C@@H](O)C[C@@H]1n1cnc2c(=O)[nH]c(N)nc21 [ETV, entecavir]
- inhibitory effect on the expression of HBsAg in the liver (in words) (HBsAg [1]): no inhibitory effect

Compound: CA2: alternating modifications; sense CmCUmUGmAGmGCmAUmACmUUmCAmAAmdTdT, antisense UmUUmGAmAGmUAmUGmCCmUCmAAmGGmdTdT (sense CCUUGAGGCAUACUUCAAATT; antisense UUUGAAGUAUGCCUCAAGGTT; sugars from the 5' end mrmrmrmrmrmrmrmrmrmdd, backbone not given here) [reference compound]
- activity at cell level compared to unmodified siRNA CA1 (HBV gene): poorer activity at cell level
- stability in blood [2]: fails to reach a stable state in the blood
- cytotoxicity compared to unmodified siRNA CA1 [3]: higher cytotoxicity
- RL (ratio of the longest fragments) 0 h ([4]; 37° C., 0 h): 100.0%
- RL (ratio of the longest fragments) 2 h ([4]; 37° C., 2 h): 86.9%
- RL (ratio of the longest fragments) 4 h ([4]; 37° C., 4 h): 76.5%
- RL (ratio of the longest fragments) 6 h ([4]; 37° C., 6 h): 68.8%
- RL (ratio of the longest fragments) 8 h ([4]; 37° C., 8 h): 67.7%
- RL (ratio of the longest fragments) 24 h ([4]; 37° C., 24 h): 48.7%
- RL (ratio of the longest fragments) 48 h ([4]; 37° C.): 52.0%
- plasma stability (in words) ([4]; up to 48 h): improved but is still not satisfactory

Compound: X2M2: siRNA against HBV X gene; sense CmCmUmUmGAGGCmAUmACmUmUmCmAAA-dTdT, antisense UfUmUfGAAGUfAUGCCUfCAAGG-dTdT; covers S++, S−−, S+−, S−+ (sense CCUUGAGGCAUACUUCAAATT; antisense UUUGAAGUAUGCCUCAAGGTT; sense: DNA at T, 2'-O-methyl at CU, RNA at AG, backbone not given here; antisense: sugars from the 5' end fmfrrrrfrrrrrfrrrrrdd, backbone not given here; phosphorothioate variants at dT overhangs exist)
- cytotoxicity by MTT assay (rat primary hepatocytes): no cytotoxicity was observed
- inhibitory activity on HBV mRNA expression in HepG2.2.15 cells (FIG. 2, in words) (HBV mRNA): excellent activity at cell level
- RL (ratio of the longest fragments) 48 h ([4]; 37° C.): ≥ 90%
- band position / full-length state on gel (FIG. 3) ([4]; up to 48 h): maintain a full-length state all the time
- plasma stability (in words) ([4]; up to 48 h): more excellent plasma stability than siRNA A4
- cytotoxicity by MTT assay (HepG2.2.15 cells): no cytotoxicity was observed

Compound: interferon [IFN]
- inhibitory effect on the expression of HBsAg in serum (in words) (HBsAg [5]): no inhibitory effect
